Assay results: the NIST ThermoML archive (doi:10.1016/j.jct.2012.05.014)

Assay: xn = mol fraction of the nth substance listed
Details: Fluid (supercritical or subcritical phases), Gravimetric method

CCCCCCNC(=O)C(=O)NCCCCCC [N1,N2-dihexyloxalamide] + O=C=O
Details | mass density [kg/m3]
313 K, 9100 kPa, x1 = 0.000112 | 517.19
313 K, 9500 kPa, x1 = 0.0002518 | 584.52
313 K, 9800 kPa, x1 = 0.000392 | 615.65
313 K, 10100 kPa, x1 = 0.0005214 | 638.82
313 K, 10400 kPa, x1 = 0.0006463 | 657.22
323 K, 10700 kPa, x1 = 0.0001583 | 472.58
323 K, 11100 kPa, x1 = 0.0003041 | 515.81
323 K, 11400 kPa, x1 = 0.0004264 | 543.31
323 K, 11700 kPa, x1 = 0.0005407 | 566.85
323 K, 12000 kPa, x1 = 0.0006537 | 587.07
333 K, 11900 kPa, x1 = 0.0002196 | 428.55
333 K, 12300 kPa, x1 = 0.0003629 | 458.89
333 K, 12600 kPa, x1 = 0.0004822 | 480.5
333 K, 12900 kPa, x1 = 0.0006024 | 500.8
333 K, 13200 kPa, x1 = 0.0007245 | 519.67
343 K, 12500 kPa, x1 = 0.000277 | 374.67
343 K, 12900 kPa, x1 = 0.0003827 | 397.3
343 K, 13200 kPa, x1 = 0.0004661 | 414.22
343 K, 13500 kPa, x1 = 0.00056 | 430.94
343 K, 13700 kPa, x1 = 0.0006445 | 441.9
353 K, 12800 kPa, x1 = 0.0003133 | 331.22
353 K, 13300 kPa, x1 = 0.0004305 | 353.15
353 K, 13700 kPa, x1 = 0.0005336 | 370.9
353 K, 14000 kPa, x1 = 0.0006155 | 384.26
353 K, 14300 kPa, x1 = 0.0007224 | 397.58

CCCCCCCCNC(=O)C(=O)NCCCCCCCC [N1,N2-dioctyloxalamide] + O=C=O
Details | mass density [kg/m3]
313 K, 11700 kPa, x1 = 0.0001449 | 710.44
313 K, 12000 kPa, x1 = 0.0001679 | 719.38
313 K, 12500 kPa, x1 = 0.0002108 | 732.67
313 K, 13000 kPa, x1 = 0.00025 | 744.41
313 K, 13400 kPa, x1 = 0.000284 | 752.9
323 K, 12300 kPa, x1 = 0.0001146 | 604.62
323 K, 12900 kPa, x1 = 0.0001562 | 633.72
323 K, 13400 kPa, x1 = 0.000212 | 653.57
323 K, 13900 kPa, x1 = 0.0002628 | 670.57
323 K, 14400 kPa, x1 = 0.0003178 | 685.43
333 K, 12900 kPa, x1 = 9.49e-05 | 500.8
333 K, 13500 kPa, x1 = 0.0001511 | 537.09
333 K, 13900 kPa, x1 = 0.0002093 | 558.17
333 K, 14400 kPa, x1 = 0.0002622 | 581.45
333 K, 14800 kPa, x1 = 0.0003278 | 597.96
343 K, 13400 kPa, x1 = 9.77e-05 | 425.4
343 K, 13700 kPa, x1 = 0.0001344 | 441.9
343 K, 14000 kPa, x1 = 0.0001772 | 457.97
343 K, 14300 kPa, x1 = 0.0002091 | 473.49
343 K, 14600 kPa, x1 = 0.0002392 | 488.4
353 K, 13600 kPa, x1 = 0.0001134 | 366.46
353 K, 14000 kPa, x1 = 0.0001546 | 384.26
353 K, 14400 kPa, x1 = 0.0002019 | 402
353 K, 14700 kPa, x1 = 0.0002432 | 415.16
353 K, 15000 kPa, x1 = 0.0002821 | 428.15

CCCCNC(=O)C(=O)NCCCC [N,N'-dibutyloxalamide] + O=C=O
Details | mass density [kg/m3]
313 K, 9100 kPa, x1 = 0.0002628 | 517.19
313 K, 9300 kPa, x1 = 0.0005167 | 556.08
313 K, 9500 kPa, x1 = 0.0008035 | 584.52
313 K, 9700 kPa, x1 = 0.001136 | 606.4
313 K, 9800 kPa, x1 = 0.001295 | 615.65
323 K, 10300 kPa, x1 = 0.0001531 | 423.74
323 K, 10600 kPa, x1 = 0.0003084 | 460.74
323 K, 10900 kPa, x1 = 0.000518 | 495.1
323 K, 11100 kPa, x1 = 0.0007008 | 515.81
323 K, 11300 kPa, x1 = 0.000942 | 534.61
333 K, 11600 kPa, x1 = 0.0003355 | 405.21
333 K, 12000 kPa, x1 = 0.0005099 | 436.26
333 K, 12300 kPa, x1 = 0.0007204 | 458.89
333 K, 12500 kPa, x1 = 0.0009202 | 473.43
333 K, 12700 kPa, x1 = 0.001115 | 487.42
343 K, 12100 kPa, x1 = 0.0003508 | 352.31
343 K, 12500 kPa, x1 = 0.000503 | 374.67
343 K, 12800 kPa, x1 = 0.000639 | 391.64
343 K, 13000 kPa, x1 = 0.0007821 | 402.95
343 K, 13200 kPa, x1 = 0.0009026 | 414.22
353 K, 12600 kPa, x1 = 0.0003735 | 322.59
353 K, 13100 kPa, x1 = 0.0005294 | 344.33
353 K, 13500 kPa, x1 = 0.0006999 | 362.01
353 K, 13800 kPa, x1 = 0.0008396 | 375.36
353 K, 14000 kPa, x1 = 0.0009729 | 384.26
